The values that follow come from US20120178738A1, “DIBENZO [B,F] [1,4]OXAZAPINE COMPOUNDS” (ARYX THERAPEUTICS, INC., priority 2007, published 2012).

Data set [1] has as its system locomotor activity in rats. Put plainly: Spontaneous locomotor activity (open field). In kind it is in vivo. The settings on record: clozapine comparator, dose not given. The method, then: One of the common side effects of many antipsychotic drugs is sedation. It has been shown that agents that have sedative actions in man have the same effect in animals. The purpose of these studies was to evaluate the effect of test compounds on the locomotor activity in rats, which is used to assess the sedative properties of antipsychotic compounds.
The animals (male Sprague Dawley rats, about 300-450 g; Charles River) were assessed for ambulation for 30 minutes before and for 30 min after vehicle or test compounds. […] Locomotor activity is quantified by the number of photobeams crossed by the animal over several 3×10 min intervals.

Another data set deals with catalepsy in mice. Put plainly: Catalepsy mouse model. The format is in vivo. The settings on record: highest dose 30 mg/kg. The method, then: A catalepsy mouse model was used to investigate a potential side effect of antipsychotic agents.
The catalepsy methodology used herein has been adapted from Tada, M. et al. ((2004). Psychopharmacol., 176, 94-100) as well as Wang et al. ((2000). J. Neurosci., 20, 8305-8314).
The animals (Swiss Webster, female, about 20 g; Charles River) were administered compounds of the invention (1 μg/kg-30 mg/kg ip). Twenty seven minutes after test compound injection, the mice's forepaws were placed on a horizontal steel bar (diameter 0.2 cm), elevated 3-5 cm above the tabletop and the time taken for the animals to remove both paws was recorded for up to 2 min.

For a further data set, the target named is T1, 5-HT2A receptor (Rattus norvegicus, UniProt P14842).
T1 construct: Eight strips of tissue (0.5 cm long) were cut. and were mounted in 10 ml organ baths; tissue Charles River Laboratories; host or cells: rat aorta strips, endothelium removed
T1 sequence (P14842 whole entry): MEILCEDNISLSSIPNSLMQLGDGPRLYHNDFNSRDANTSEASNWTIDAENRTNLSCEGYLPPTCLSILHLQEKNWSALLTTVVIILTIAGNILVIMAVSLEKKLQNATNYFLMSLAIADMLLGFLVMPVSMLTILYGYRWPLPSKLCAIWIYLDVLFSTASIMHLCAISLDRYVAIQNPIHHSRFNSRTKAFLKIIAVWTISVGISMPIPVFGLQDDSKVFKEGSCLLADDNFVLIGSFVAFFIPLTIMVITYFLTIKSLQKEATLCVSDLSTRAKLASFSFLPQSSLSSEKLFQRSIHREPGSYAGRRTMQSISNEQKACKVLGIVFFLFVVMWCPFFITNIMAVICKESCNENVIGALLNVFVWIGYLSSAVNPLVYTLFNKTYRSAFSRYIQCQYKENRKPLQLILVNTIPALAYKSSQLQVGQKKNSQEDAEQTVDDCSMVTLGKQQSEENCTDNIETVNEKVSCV
Put plainly: cell-based. The settings on record: read-out: 5HT2A (pKb) (converted). In outline: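 Endothelium-denuded aortic strips from male Sprague Dawley rats held at 37° C in carbogen-aerated Krebs, pH 7.4, under 2 g resting tension. Contraction recorded as tension change, expressed as % of maximal 5-HT response; agonist EC50 from Parker–Waud fit, antagonist pKB/pA2 from concentration-ratios.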

The next data set addresses T2, human 5HT2C receptors (Homo sapiens, UniProt P28335).
T2 construct: expressed in transfected cells; host or cells: human embryo kidney cells (membranes)
T2 sequence (P28335 33-458): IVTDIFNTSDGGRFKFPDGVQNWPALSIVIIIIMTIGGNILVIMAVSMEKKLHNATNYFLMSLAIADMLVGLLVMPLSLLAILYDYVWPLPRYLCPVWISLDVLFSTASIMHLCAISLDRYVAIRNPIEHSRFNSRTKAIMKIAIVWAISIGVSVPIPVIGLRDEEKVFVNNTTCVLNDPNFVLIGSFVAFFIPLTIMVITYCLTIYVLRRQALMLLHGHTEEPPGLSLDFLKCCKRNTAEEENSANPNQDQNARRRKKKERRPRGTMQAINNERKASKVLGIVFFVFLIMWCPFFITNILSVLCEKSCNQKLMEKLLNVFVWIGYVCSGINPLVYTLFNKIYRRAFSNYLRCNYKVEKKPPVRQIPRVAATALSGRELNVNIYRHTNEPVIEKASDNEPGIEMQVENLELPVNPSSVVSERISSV
Put plainly: h5-HT2C receptor radioligand binding ([3H]Mesulergine). The conditions noted are these: pKi reported on a scale of 1 through 5. An outline of the steps:
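Competition binding: membranes incubated to equilibrium with a single concentration of [3H]mesulergine and a range of unlabeled test compound concentrations, then filtered. Nonspecific binding defined with a known receptor blocker; displacement concentration-response, corrected for nonspecific binding, gave the affinity measure.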

For data set [2], the target named is T3, human D2s dopamine receptors (Homo sapiens, UniProt P14416).
T3 construct: expressed in transfected cells; host or cells: Chinese hamster ovary cells (membranes)
T3 sequence (P14416 1-414 isoform P14416-2): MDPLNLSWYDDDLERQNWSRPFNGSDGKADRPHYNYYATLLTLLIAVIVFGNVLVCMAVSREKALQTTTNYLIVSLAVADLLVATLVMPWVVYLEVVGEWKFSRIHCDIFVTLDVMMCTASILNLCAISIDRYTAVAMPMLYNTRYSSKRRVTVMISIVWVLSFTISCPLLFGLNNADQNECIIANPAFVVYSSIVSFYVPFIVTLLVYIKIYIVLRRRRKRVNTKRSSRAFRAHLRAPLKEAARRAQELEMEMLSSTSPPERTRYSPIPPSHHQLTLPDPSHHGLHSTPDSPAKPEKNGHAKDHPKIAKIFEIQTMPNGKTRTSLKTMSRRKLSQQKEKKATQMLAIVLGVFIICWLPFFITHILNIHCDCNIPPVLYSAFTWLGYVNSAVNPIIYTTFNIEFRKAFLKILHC
As to the kind of experiment: hD2S receptor radioligand binding ([3H]spiperone). The settings on record: pKi reported on a scale of 1 through 5. An outline of the steps: (§1)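 Competition binding: membranes or tissue bearing the receptor incubated to equilibrium with a single radioligand concentration plus a range of unlabelled test compound concentrations; bound and free separated by filtration. Nonspecific binding defined with a known blocker; displacement curves corrected for it gave binding values.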

The target in another data set is T4, human M3 receptors (Homo sapiens, UniProt P20309).
T4 construct: expressed in transfected cells; host or cells: Chinese hamster ovary cells (membranes)
T4 sequence (P20309 whole entry): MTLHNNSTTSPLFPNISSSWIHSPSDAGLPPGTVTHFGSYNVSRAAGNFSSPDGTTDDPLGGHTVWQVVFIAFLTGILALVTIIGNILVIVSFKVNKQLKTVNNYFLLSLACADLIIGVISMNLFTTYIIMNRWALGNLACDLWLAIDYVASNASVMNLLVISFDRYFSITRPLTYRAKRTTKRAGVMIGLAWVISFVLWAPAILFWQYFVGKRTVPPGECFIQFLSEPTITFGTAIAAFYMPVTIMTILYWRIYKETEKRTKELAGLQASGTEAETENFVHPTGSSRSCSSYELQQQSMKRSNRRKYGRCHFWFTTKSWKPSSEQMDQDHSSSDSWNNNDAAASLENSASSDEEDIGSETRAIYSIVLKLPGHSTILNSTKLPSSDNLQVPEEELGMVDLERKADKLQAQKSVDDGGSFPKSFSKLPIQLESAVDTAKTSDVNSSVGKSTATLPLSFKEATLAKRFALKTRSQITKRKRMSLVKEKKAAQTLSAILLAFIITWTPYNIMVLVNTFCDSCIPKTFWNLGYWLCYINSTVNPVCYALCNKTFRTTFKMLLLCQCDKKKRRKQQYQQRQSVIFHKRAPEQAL
Put plainly: hM3 receptor radioligand binding ([3H]NMS). The conditions noted are these: pKi reported on a scale of 1 through 5; read-out: M3 (pKi) (converted). An outline of the steps:
as §1

Data set [3] deals with T5, human D2L dopamine receptors (Homo sapiens, UniProt P14416).
T5 construct: expressed in transfected cells; host or cells: insect Sf9 cells (membranes)
T5 sequence (P14416 whole entry): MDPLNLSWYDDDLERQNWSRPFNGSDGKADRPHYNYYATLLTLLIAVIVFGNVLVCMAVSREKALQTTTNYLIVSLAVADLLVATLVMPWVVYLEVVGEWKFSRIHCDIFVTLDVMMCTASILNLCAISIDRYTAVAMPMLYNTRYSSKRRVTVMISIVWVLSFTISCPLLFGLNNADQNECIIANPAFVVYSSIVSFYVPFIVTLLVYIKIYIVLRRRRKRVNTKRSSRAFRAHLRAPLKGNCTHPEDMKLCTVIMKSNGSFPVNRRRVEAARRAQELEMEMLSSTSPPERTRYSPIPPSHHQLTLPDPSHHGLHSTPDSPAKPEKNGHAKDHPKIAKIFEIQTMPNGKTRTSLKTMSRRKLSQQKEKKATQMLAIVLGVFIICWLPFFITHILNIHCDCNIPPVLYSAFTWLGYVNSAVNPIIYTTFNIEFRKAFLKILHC
As to the kind of experiment: hD2L receptor radioligand binding ([3H]spiperone). The conditions noted are these: pKi reported on a scale of 1 through 5; read-out: D2L (pKi) (converted). An outline of the steps: as §1

The next data set deals with T6, human H1 receptors (Homo sapiens, UniProt P35367).
T6 construct: expressed in transfected cells; host or cells: Chinese hamster ovary cells (membranes)
T6 sequence (P35367 whole entry): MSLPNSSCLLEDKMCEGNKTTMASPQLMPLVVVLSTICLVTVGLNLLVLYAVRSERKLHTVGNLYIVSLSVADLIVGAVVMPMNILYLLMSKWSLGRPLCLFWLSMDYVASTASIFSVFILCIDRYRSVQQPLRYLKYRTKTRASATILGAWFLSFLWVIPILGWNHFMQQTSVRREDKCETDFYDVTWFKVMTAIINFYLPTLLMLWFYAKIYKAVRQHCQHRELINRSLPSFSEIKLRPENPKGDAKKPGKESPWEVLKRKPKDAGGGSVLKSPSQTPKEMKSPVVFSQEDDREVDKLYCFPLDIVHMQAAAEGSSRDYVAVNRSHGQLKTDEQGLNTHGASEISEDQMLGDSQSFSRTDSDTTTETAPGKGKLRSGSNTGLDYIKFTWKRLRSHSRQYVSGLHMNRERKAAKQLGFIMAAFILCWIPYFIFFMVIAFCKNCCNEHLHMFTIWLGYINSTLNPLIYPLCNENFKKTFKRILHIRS
As to the kind of experiment: hH1 receptor radioligand binding ([3H]Pyrilamine). The conditions noted are these: pKi reported on a scale of 1 through 5. In outline:
as §1

A further data set concerns the target T7, human M1 receptors (Homo sapiens, UniProt P11229).
T7 construct: expressed in transfected cells; host or cells: Chinese hamster ovary cells (membranes)
T7 sequence (P11229 1-460): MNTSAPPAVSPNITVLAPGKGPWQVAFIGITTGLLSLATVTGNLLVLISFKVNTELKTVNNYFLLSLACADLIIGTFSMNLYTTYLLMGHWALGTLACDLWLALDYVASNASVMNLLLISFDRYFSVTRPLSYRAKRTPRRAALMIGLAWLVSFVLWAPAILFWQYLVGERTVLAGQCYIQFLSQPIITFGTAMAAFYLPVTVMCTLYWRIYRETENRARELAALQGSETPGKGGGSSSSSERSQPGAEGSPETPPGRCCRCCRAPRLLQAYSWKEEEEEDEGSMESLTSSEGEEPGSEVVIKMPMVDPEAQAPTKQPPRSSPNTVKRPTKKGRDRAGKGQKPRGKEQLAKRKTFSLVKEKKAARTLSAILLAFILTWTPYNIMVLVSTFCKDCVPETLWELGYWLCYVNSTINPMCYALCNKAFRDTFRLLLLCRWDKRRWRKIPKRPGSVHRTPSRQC
As to the kind of experiment: hM1 receptor radioligand binding ([3H]NMS). The settings on record: pKi reported on a scale of 1 through 5. An outline of the steps: as §1

A further data set concerns the target T8, human 5HT7 receptors (Homo sapiens, UniProt P34969).
T8 construct: expressed in transfected cells; host or cells: Chinese hamster ovary cells (membranes)
As to the kind of experiment: h5-HT7 receptor radioligand binding ([3H]5-CT). The settings on record: pKi reported on a scale of 1 through 5; read-out: 5HT7 (pKi) (converted). An outline of the steps:
as §1

The target in the next data set is T9, human 5HT1A receptors (Homo sapiens, UniProt P08908).
T9 construct: expressed in transfected cells; host or cells: Chinese hamster ovary cells (membranes)
T9 sequence (P08908 1-422): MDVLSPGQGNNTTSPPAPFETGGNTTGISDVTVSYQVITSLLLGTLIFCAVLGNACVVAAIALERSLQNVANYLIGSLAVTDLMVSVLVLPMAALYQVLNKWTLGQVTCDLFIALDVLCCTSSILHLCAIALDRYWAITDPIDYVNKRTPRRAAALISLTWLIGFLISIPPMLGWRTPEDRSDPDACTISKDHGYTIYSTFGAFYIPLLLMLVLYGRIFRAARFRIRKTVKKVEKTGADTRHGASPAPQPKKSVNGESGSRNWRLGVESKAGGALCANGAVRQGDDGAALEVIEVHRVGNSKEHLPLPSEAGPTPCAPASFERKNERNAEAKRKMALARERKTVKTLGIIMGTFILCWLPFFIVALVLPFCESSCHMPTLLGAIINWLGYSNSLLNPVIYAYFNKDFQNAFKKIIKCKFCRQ
Put plainly: h5-HT1A receptor radioligand binding ([3H]8OH-DPAT). The conditions noted are these: pKi reported on a scale of 1 through 5. In outline: as §1

T8 sequence (P34969 whole entry): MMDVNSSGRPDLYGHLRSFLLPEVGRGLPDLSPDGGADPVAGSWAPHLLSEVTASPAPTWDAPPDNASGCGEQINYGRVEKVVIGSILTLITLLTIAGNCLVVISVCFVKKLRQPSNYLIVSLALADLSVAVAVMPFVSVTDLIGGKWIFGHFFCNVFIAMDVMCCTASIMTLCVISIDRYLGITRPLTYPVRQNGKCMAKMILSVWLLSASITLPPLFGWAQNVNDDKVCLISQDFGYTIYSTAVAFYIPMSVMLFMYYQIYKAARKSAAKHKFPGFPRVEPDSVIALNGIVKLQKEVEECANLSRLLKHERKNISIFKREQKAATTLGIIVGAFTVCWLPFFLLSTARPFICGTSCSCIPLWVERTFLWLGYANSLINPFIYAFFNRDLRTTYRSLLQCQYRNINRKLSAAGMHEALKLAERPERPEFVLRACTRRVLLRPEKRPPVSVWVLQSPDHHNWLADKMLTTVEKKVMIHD

On to `CN1CCN(C2=Nc3cc(Cl)ccc3Nc3ccccc32)CC1` [clozapine, reference compound], for which the “locomotor activity in rat (open field)” value in data set [1] was “trend toward sedation”. Besides, the catalepsy entry in the data set with catalepsy in mice is “induced catalepsy”.

On to `COCCNC(=O)C[C@H]1CN(C2=Nc3cc(Cl)ccc3Oc3ccccc32)CCN1` [FC, (S,E)-2-(4-(8-chlorodibenzo[b,f][1,4]oxazepin-11-yl)piperazin-2-yl)-N-(2-methoxyethyl)acetamide], for which, on 5-HT2A receptor, the Kb is 0.00316 to 0.00977 µM. Further, the Ki on human 5HT2C receptors is 0.01 to 0.0977 µM; in data set [2], 0.631 to 2.45 µM; on human M3 receptors, over 10 µM; in [3] it was 0.631 to 2.45 µM; on human H1 receptors, 0.01 to 0.0977 µM; at human M1 receptors, over 10 µM. Further, the Ki was 0.631 to 1.55 µM on human 5HT7 receptors and 0.01 to 0.0977 µM on human 5HT1A receptors.

As to `CC(C)(CO)NC(=O)C[C@H]1CN(C2=Nc3cc(Cl)ccc3Oc3ccccc32)CCN1` [EY, (S,E)-2-(4-(8-chlorodibenzo[b,f][1,4]oxazepin-11-yl)piperazin-2-yl)-N-(1-hydroxy-2-methylpropan-2-yl)acetamide], on 5-HT2A receptor, the Kb is 0.00316 to 0.00977 µM. Further, the Ki is 0.01 to 0.0977 µM at human 5HT2C receptors; 0.631 to 2.45 µM in [2]; over 10 µM on human M3 receptors; 0.631 to 2.45 µM in data set [3]; 0.01 to 0.0977 µM at human H1 receptors; over 10 µM on human M1 receptors. The Ki on human 5HT7 receptors was 0.631 to 1.55 µM; on human 5HT1A receptors, 0.01 to 0.0977 µM.

Consider `COC(=O)C[C@H]1CN(C2=Nc3cc(Cl)ccc3Oc3ccccc32)CCN1C` [DW, (S,E)-methyl 2-(4-(8-chlorodibenzo[b,f][1,4]oxazepin-11-yl)-1-methylpiperazin-2-yl)acetate], for which the Kb on 5-HT2A receptor is 0.0316 to 0.0977 µM. Also, the Ki is 0.1 to 0.977 µM at human 5HT2C receptors; over 10 µM in [2]; over 10 µM at human M3 receptors; 2.51 to 9.77 µM in [3]; 0.1 to 0.977 µM at human H1 receptors; at most 1.23 µM on human M1 receptors. The Ki on human 5HT7 receptors was 3.98 to 9.77 µM; on human 5HT1A receptors, 1 to 9.77 µM.

In the case of `COc1ccc(NC(=O)C[C@H]2CN(C3=Nc4cc(Cl)ccc4Oc4ccccc43)CCN2)cn1` [FP, (S,E)-2-(4-(8-chlorodibenzo[b,f][1,4]oxazepin-11-yl)piperazin-2-yl)-N-(6-methoxypyridin-3-yl)acetamide], the Kb at 5-HT2A receptor is 0.01 to 0.0309 µM. Moreover, the Ki was 0.01 to 0.0977 µM at human 5HT2C receptors; 0.631 to 2.45 µM in [2]; over 10 µM on human M3 receptors; 0.631 to 2.45 µM in data set [3]; 0.01 to 0.0977 µM on human H1 receptors; 5.01 to 9.77 µM at human M1 receptors. In addition, the Ki on human 5HT7 receptors is 1.58 to 3.89 µM; at human 5HT1A receptors, at most 0.00977 µM.

`CN1CCN(C2=Nc3cc(Cl)ccc3Oc3ccccc32)C[C@@H]1CC(=O)OC1CCCC1` [DX, (S,E)-cyclopentyl 2-(4-(8-chlorodibenzo[b,f][1,4]oxazepin-11-yl)-1-methylpiperazin-2-yl)acetate]: the Kb on 5-HT2A receptor is 0.01 to 0.0309 µM. Besides, the Ki on human 5HT2C receptors is 0.1 to 0.977 µM; in data set [2], 2.51 to 9.77 µM; at human M3 receptors it was over 10 µM; in data set [3], 2.51 to 9.77 µM; on human H1 receptors, 0.1 to 0.977 µM; at human M1 receptors, 5.01 to 9.77 µM. The Ki at human 5HT7 receptors is over 10 µM; at human 5HT1A receptors, 1 to 9.77 µM.

On to `CN(CCO)C(=O)C[C@H]1CN(C2=Nc3cc(Cl)ccc3Oc3ccccc32)CCN1` [FO, (S,E)-2-(4-(8-chlorodibenzo[b,f][1,4]oxazepin-11-yl)piperazin-2-yl)-N-(2-hydroxyethyl)-N-methylacetamide], for which the Kb on 5-HT2A receptor was 0.01 to 0.0309 µM. Further, the Ki is 0.01 to 0.0977 µM on human 5HT2C receptors; 2.51 to 9.77 µM in [2]; over 10 µM at human M3 receptors; 2.51 to 9.77 µM in data set [3]; 0.01 to 0.0977 µM at human H1 receptors; 2.51 to 4.9 µM at human M1 receptors. Also, the Ki on human 5HT7 receptors was 0.631 to 1.55 µM; on human 5HT1A receptors, 0.1 to 0.977 µM.

In the case of `C[C@@H](O)CNC(=O)C[C@H]1CN(C2=Nc3cc(Cl)ccc3Oc3ccccc32)CCN1` [FB, 2-((S)-4-((E)-8-chlorodibenzo[b,f][1,4]oxazepin-11-yl)piperazin-2-yl)-N-((R)-2-hydroxypropyl)acetamide], at 5-HT2A receptor, the Kb was under 0.00309 µM. Further, the Ki was 0.01 to 0.0977 µM at human 5HT2C receptors; 0.631 to 2.45 µM in data set [2]; over 10 µM at human M3 receptors; 0.631 to 2.45 µM in data set [3]; 0.01 to 0.0977 µM at human H1 receptors; over 10 µM at human M1 receptors. Moreover, the Ki at human 5HT7 receptors is 0.631 to 1.55 µM; at human 5HT1A receptors, 0.01 to 0.0977 µM.
